From patent US7531575B2, “Method of modulating cellular activity and agents useful for same” (Eberhard-Karls-Universität Tübingin, priority 2002, dated 2009)

Columns and labels:
Type in all cases: cell-based, murine
iNOS [1] = assay: iNOS activity by Griess assay (nitrite formation), LPS-stimulated N9 microglia; settings: N9 cells
Excerpt: (§1) TNL was a generous gift of Kissei Pharmaceuticals, LPC (Escherichia coli, 0127:BS), phorbol 12-myristate 13-acetate (PMA) and dexamethasone (DEX) were obtained from Sigma, BAY 11-7082 (BAY), NF-κB SN50 inhibitory peptide (SN50), GF 109203X (GFX) and rottlerin (ROT) were purchased from Biomol. PD098059 (PD) was obtained from Calbiochem. Purified murine interferon-γ (IFN-γ) was purchased from Roche Diagnostics. N9 murine microglial cells were a kind gift from P. Ricciardi-Castagnoli (Righi, M. et al. 1989 supra). Cells were cultured in Dulbecco's modified Eagle's medium (DMEM) supplemented with 10% fetal calf serum (FCS), 2 mM glutamine, penicillin (100 unit/mL) and streptomycin (100 μg/mL) and maintained at 37° in an atmosphere of 5% CO2. Viability was assessed by crystal violet staining.
iNOS activity was assessed by the Griess assay (Platten, M., Wick, W., Wischhusen, J. and Weller, M. Br J Pharmacol 134(6):1279-1284, 2001). Briefly, conditioned supernatant was incubated with an equal volume of Griess reagent containing 1% sulphanilamide, 0.1% naphthylethylenediamine dihydrochloride and 2.5% H3PO4 (Green, L. C., Wagner, D. A., Glogowski, J., Skipper, P. I., Wishnok, J. S, and Tannenbaum, S. R. Anal. Biochem., 126:131-138, 1982) for 5 min. at room temperature. The absorbance was measured at 546 nm. NaNO2 diluted in DMEM served as a standard. To control for cell number, the cells were stained with crystal violet. iNOS activity is expressed as nitrite accumulated in 48 hr/10^5 cells.

iNOS [2] = assay: iNOS protein immunoblot, LPS-stimulated N9 microglia
Excerpt: as §1
For the preparation of whole cell lysates, the cells were lysed in 0.1 M Tris-HCl (pH 7.2) containing 0.1% NP40, 0.1 mM EDTA and 5 μg/mL phenylmethylsulphonyl fluoride. Twenty micrograms protein was separated by 10-12% SDS-PAGE and electroblotted on nitrocellulose membrane. Equal loading was controlled by Ponceau S staining. Immunodetection was performed using the following antibodies: anti-iNOS rabbit polyclonal antibody (1:1000, Cayman), antiphospho-IκBα mouse monoclonal antibody (1:1000), anti-PKCδ mouse monoclonal antibody (1:2000), antiphospho-MARCKS rabbit polyclonal antibody (1:1000), antiphospho-ERK-1/2, antiphospho-AKT, antiphospho-p38 mouse monoclonal antibodies (1:2000), anti-ERK-1/2, anti-AKT mouse monoclonal antibodies (1:500, all from Signal Transduction Laboratories). Bands were visualized using horseradish peroxidase-conjugated anti-rabbit IgG (1:4000 SantaCruz) or anti-mouse IgG (1:4000, Amersham).

ERK-1/2 = assay: phospho-ERK-1/2 immunoblot after PKC depletion, LPS-stimulated N9 microglia; settings: N9 cells, prolonged pretreatment with PMA 100 nM 24 hr, then LPS 10 μg/mL
Excerpt: as §1
(§2) For the preparation of whole cell lysates, the cells were lysed in 0.1 M Tris-HCl (pH 7.2) containing 0.1% NP40, 0.1 mM EDTA and 5 μg/mL phenylmethylsulphonyl fluoride. Twenty micrograms protein was separated by 10-12% SDS-PAGE and electroblotted on nitrocellulose membrane. Equal loading was controlled by Ponceau S staining. […]

PKCδ = PKCδ immunoblot after long-term PMA in N9 microglia; settings: N9 cells, PMA 100 nM, 24 hr treatment, data not shown
Excerpt: as §1, §2

iNOS [3] = assay: iNOS activity by Griess assay (NO2 release), IFN-γ-stimulated N9 microglia; settings: N9 cells, IFN-γ 200 u ml, 48 h, dexamethasone 500 nM
Experimental: Tranilast was a generous gift of Kissei Pharmaceuticals (Nagano, Japan). Murine recombinant IFN-γ was purchased from Boehringer (Mannheim, Germany). Dexamethasone (DEX) was obtained from Sigma (Deisenhofen, Germany). N9 murine microglial cells were a kind gift from P. Ricciardi-Castagnoli (Milano, Italy) (Righi, M., Mori, L., De Libero, G., Sironi, M., Biondi, A., Mantovani, A., Donini, S. D. and Ricciardi-Castagnoli, P. Eur J Immunol 19(8):1443-1448, 1989). The cells were cultured in Dulbecco's modified Eagle's medium (DMEM) supplemented with 10% foetal calf serum (FCS), 2 mM glutamine and penicillin ([…])/streptomycin (100 μg ml), and maintained at 37° C. in an atmosphere of 5% CO2. Viability was assessed by crystal violet staining.
iNOS activity was assessed by the Griess assay as described elsewhere (Rieger, J., Stander, M., Loschmann, P. A., Heneka, M., Dichgans, J., Klockgether, T. and Weller, M., Oncogene, 17:2323-2332, 1998). Briefly, conditioned supernatant (100 μl) was incubated with an equal volume of 1% sulphanilamide/0.1% naphthyl ethylene diamine dihydrochloride/2.5% H3PO4 (Griess reagent) (Green, L. C., Wagner, D. A., Glogowski, J., Skipper, P. I., Wishnok, J. S, and Tannenbaum, S. R., Anal. Biochem., 126:131-138, 1982), incubated for 5 min at room temperature, and the absorbance at […] determined. Solutions of NaNO2 diluted in DMEM served as standards. The absorbance readings resulting from DMEM alone were subtracted from the sample values. Cell density was assessed using crystal violet staining to control for differences in cell proliferation. iNOS activity is thus expressed here as NO2 accumulated per 48 h per 10^5 cells.

## Cc1ccc(S(=O)(=O)/C=C/C#N)cc1 [BAY]
iNOS [1]; LPS, BAY 20 μM, vehicle-treated cells 14.6±1.0
  LPS-stimulated NO release: 11.1±0.7 μM/10^4 cells/48 hr

## CN(C)CCCn1cc(C2=C(c3c[nH]c4ccccc34)C(=O)NC2=O)c2ccccc21 [GFX]
iNOS [2]; PMA 100 nM 15 min, LPS 10 μg/mL 24 hr, GFX 2 μM
  PMA superinduction of iNOS protein in LPS-stimulated cells: abolished

## COc1cccc(-c2cc(=O)c3ccccc3o2)c1N [PD]
iNOS [1]; LPS, 40 μM PD, vehicle-treated cells 16.6±0.3
  LPS-mediated nitrite formation: 10.7±0.4 μM/10^4 cells/48 hr

## CCCCCCCCCCCCCC(=O)O[C@@H]1[C@@H](C)[C@@]2(O)[C@@H](C=C(CO)C[C@]3(O)C(=O)C(C)=C[C@@H]23)[C@@H]2C(C)(C)[C@]12OC(C)=O [PMA, phorbol 12-myristate 13-acetate]
ERK-1/2
  LPS-induced ERK-1/2 phosphorylation: failed to induce
PKCδ
  PKCδ protein level: effectively depleted
iNOS [2]; N9 cells, 24-hr exposure to PMA 100 nM, then LPS 10 μg/mL for 24 hr
  reduction of iNOS protein (densitometry): 80%
iNOS [2]; N9 cells, PMA 100 nM pretreatment 15 min, LPS 10 μg/mL, 24 hr
  LPS-mediated iNOS protein expression: superinduction
iNOS [2]; N9 cells, PMA 100 nM, no LPS
  iNOS protein expression in the absence of LPS: did not induce
iNOS [1]; PMA 100 nM pretreatment 15 min, LPS 10 μg/mL, 48 hr
  LPS-mediated nitrite formation: superinduction

## CC(=O)c1c(O)c(C)c(O)c(Cc2c(O)c3c(c(C(=O)/C=C/c4ccccc4)c2O)OC(C)(C)C=C3)c1O [ROT, rottlerin]
iNOS [2]; N9 cells, LPS 10 μg/mL 24 hr, ROT at concentrations as low as 5 μM
  iNOS protein accumulation after LPS: strongly inhibited

## C[C@@H]1C[C@H]2[C@@H]3CCC4=CC(=O)C=C[C@]4(C)[C@@]3(F)[C@@H](O)C[C@]2(C)[C@@]1(O)C(=O)CO [dexamethasone]
iNOS [3]
  reduction of the amount of NO2 (Griess assay): 75%
